Measured values from patent US8809331B2 (Genentech, Inc., priority 2011, dated 2014).

target: T1, LRRK2 (Homo sapiens, UniProt Q5S007, G2019S); experiment: In Vitro LRRK2 LabChip Assay (LRRK2 Ki); type: biochemical; conditions: Table 5 compounds (formula I)
T1 construct: purchased Invitrogen PV4882
T1 sequence (Q5S007 whole entry G2019S): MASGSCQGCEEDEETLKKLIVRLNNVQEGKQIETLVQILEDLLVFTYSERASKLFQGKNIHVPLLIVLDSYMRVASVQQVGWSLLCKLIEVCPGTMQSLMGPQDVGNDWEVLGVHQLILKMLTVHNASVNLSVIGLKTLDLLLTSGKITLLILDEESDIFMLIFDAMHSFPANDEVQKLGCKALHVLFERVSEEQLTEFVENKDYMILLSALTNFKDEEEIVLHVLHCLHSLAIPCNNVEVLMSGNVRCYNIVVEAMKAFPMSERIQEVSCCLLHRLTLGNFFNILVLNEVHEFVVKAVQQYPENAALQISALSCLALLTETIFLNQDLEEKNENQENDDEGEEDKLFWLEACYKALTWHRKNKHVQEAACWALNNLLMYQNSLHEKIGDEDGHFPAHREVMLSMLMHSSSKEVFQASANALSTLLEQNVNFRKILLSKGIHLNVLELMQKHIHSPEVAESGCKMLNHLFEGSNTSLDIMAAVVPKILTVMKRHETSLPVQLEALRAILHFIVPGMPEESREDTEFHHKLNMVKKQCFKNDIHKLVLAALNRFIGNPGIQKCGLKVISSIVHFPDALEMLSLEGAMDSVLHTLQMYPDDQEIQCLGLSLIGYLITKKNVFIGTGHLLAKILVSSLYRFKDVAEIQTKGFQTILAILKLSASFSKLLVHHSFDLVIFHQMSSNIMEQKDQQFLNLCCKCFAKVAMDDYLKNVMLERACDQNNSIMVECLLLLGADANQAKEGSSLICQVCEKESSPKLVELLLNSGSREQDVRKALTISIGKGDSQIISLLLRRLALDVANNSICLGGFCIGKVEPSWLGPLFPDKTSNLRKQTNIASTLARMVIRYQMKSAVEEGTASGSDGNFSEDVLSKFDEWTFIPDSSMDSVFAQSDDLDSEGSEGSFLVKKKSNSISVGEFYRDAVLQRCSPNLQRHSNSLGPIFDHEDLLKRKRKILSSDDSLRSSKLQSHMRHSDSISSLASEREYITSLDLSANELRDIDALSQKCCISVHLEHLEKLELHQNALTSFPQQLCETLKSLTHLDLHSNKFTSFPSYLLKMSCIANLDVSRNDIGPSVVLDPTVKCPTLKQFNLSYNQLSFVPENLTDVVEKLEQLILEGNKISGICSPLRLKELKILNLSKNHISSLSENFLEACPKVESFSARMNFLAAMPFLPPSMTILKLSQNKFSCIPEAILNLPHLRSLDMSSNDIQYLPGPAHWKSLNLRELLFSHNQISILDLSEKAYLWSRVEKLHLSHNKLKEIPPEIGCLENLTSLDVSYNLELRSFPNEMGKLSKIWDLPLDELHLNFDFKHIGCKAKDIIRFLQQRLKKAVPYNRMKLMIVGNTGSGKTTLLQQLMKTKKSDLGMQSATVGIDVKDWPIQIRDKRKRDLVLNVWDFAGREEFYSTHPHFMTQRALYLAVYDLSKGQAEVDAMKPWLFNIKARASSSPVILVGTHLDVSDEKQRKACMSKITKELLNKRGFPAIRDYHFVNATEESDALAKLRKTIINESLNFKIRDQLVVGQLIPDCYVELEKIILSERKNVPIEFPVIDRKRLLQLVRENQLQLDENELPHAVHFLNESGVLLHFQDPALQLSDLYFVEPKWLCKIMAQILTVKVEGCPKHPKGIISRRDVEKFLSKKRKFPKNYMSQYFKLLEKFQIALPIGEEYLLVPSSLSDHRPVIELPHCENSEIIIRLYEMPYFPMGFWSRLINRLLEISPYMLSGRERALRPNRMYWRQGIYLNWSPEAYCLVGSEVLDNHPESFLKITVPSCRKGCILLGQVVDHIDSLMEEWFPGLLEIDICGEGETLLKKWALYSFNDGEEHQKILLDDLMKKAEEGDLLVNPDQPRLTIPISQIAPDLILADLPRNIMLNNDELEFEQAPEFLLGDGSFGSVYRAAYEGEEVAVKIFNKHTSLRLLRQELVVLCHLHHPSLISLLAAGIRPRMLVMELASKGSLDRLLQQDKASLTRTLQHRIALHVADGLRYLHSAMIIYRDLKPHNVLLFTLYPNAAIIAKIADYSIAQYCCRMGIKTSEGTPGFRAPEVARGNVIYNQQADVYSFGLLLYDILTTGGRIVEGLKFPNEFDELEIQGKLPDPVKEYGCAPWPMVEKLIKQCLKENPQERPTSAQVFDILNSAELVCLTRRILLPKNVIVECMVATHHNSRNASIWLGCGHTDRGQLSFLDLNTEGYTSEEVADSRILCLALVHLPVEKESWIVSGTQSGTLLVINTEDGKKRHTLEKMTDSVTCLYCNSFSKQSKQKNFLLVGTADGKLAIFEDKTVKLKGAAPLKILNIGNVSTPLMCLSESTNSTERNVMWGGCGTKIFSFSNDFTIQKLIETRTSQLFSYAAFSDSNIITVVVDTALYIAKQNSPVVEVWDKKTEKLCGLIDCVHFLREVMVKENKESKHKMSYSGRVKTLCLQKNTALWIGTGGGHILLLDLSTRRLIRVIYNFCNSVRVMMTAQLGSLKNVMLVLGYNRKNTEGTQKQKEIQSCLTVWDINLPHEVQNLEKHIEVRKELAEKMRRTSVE

Compound | Ki [nM]
COc1cc(C(=O)N2CCOCC2)c(F)cc1Nc1ncc(C(F)(F)F)c(N[C@@H]2C[C@@H]2F)n1 [Compound 75, {2-Fluoro-4-[4-((1R,2S)-2-fluoro-cyclopropylamino)-5-trifluoromethyl-pyrimidin-2-ylamino]-5-methoxy-phenyl}-morpholin-4-yl-methanone] | 2.19
CNc1nc(Nc2ccc(C(=O)N3CCOCC3)cc2OC2CC2)ncc1C(F)(F)F [Compound 77, [3-Cyclopropoxy-4-(4-methylamino-5-trifluoromethyl-pyrimidin-2-ylamino)-phenyl]-morpholin-4-yl-methanone] | 1.62
CCNc1nc(Nc2cc(F)c(C(=O)N3CC[C@H](F)C3)cc2OC)ncc1C#N [Compound 80, 4-Ethylamino-2-[5-fluoro-4-((S)-3-fluoro-pyrrolidine-1-carbonyl)-2-methoxy-phenylamino]-pyrimidine-5-carbonitrile] | 10.4
CNc1nc(Nc2cc(OC)c(C(=O)N3CCOCC3)c(OC)c2Cl)ncc1C(F)(F)F [Compound 82, [3-Chloro-2,6-dimethoxy-4-(4-methylamino-5-trifluoromethyl-pyrimidin-2-ylamino)-phenyl]-morpholin-4-yl-methanone] | 2.82
CNc1nc(Nc2ccc(C(=O)N3CCOC(C)(C)C3)cc2OC)ncc1C(F)(F)F [Compound 83, (2,2-Dimethyl-morpholin-4-yl)-[3-methoxy-4-(4-methylamino-5-trifluoromethyl-pyrimidin-2-ylamino)-phenyl]-methanone] | 1.74
CNc1nc(Nc2cc(C)c(C(=O)N3CCOCC3)cc2OCCF)ncc1C(F)(F)F [Compound 84, [5-(2-Fluoro-ethoxy)-2-methyl-4-(4-methylamino-5-trifluoromethyl-pyrimidin-2-ylamino)-phenyl]-morpholin-4-yl-methanone] | 2.34
CNc1nc(Nc2cc(C)c(C(=O)N3CCOCC3)cc2OCF)ncc1C(F)(F)F [Compound 88, [5-Fluoromethoxy-2-methyl-4-(4-methylamino-5-trifluoromethyl-pyrimidin-2-ylamino)-phenyl]-morpholin-4-yl-methanone] | 1.01
COc1cc(C(=O)N2CCOCC2)c(F)cc1Nc1ncc(C(F)(F)F)c(NC2CCC2)n1 [Compound 91, [4-(4-Cyclobutylamino-5-trifluoromethyl-pyrimidin-2-ylamino)-2-fluoro-5-methoxy-phenyl]-morpholin-4-yl-methanone] | 0.31
CCNc1nc(Nc2cc(C)c(C(=O)N3CC[C@H](F)C3)cc2OC)ncc1C#N [Compound 97, 4-Ethylamino-2-[4-((S)-3-fluoro-pyrrolidine-1-carbonyl)-2-methoxy-5-methyl-phenylamino]-pyrimidine-5-carbonitrile] | 1.21
CCNc1nc(Nc2ccc(C(=O)N3CC[C@H](F)C3)cc2F)ncc1C#N [Compound 98, 4-Ethylamino-2-[2-fluoro-4-((S)-3-fluoro-pyrrolidine-1-carbonyl)-phenylamino]-pyrimidine-5-carbonitrile] | 17.5
CCOc1cc(C(=O)N2CCOCC2)c(C)cc1Nc1ncc(C(F)(F)F)c(NC)n1 [Compound 100, [5-Ethoxy-2-methyl-4-(4-methylamino-5-trifluoromethyl-pyrimidin-2-ylamino)-phenyl]-morpholin-4-yl-methanone] | 1.05
O=C(c1cc(Cl)c(Nc2ncc(C(F)(F)F)c(NC3CC3)n2)cc1OCF)N1CCOCC1 [Compound 102, [5-Chloro-4-(4-cyclopropylamino-5-trifluoromethyl-pyrimidin-2-ylamino)-2-fluoromethoxy-phenyl]-morpholin-4-yl-methanone] | 708
[2H]C1([2H])OC([2H])([2H])C([2H])([2H])N(C(=O)c2cc(OC)c(Nc3ncc(C(F)(F)F)c(NC)n3)cc2C)C1([2H])[2H] [Compound 104, (5-methoxy-2-methyl-4-(4-(methylamino)-5-(trifluoromethyl)pyrimidin-2-ylamino)phenyl)(perdeuteromorpholino)methanone] | 0.342
CCNc1nc(Nc2cc(C)c(C(=O)NCC(C)(C)O)cc2OC)ncc1C(F)(F)F [Compound 105, 4-(4-Ethylamino-5-trifluoromethyl-pyrimidin-2-ylamino)-N-(2-hydroxy-2-methyl-propyl)-5-methoxy-2-methyl-benzamide] | 0.31
CCNc1nc(Nc2ccc(C(=O)N3CC[C@H](F)C3)cc2Cl)ncc1C#N [Compound 108, 2-[2-Chloro-4-((S)-3-fluoro-pyrrolidine-1-carbonyl)-phenylamino]-4-ethylamino-pyrimidine-5-carbonitrile] | 28.9

Further molecules by falling Ki, results first:

Ki [nM] | Compound
2600 | CCN(c1ncc(C(F)(F)F)c(NC)n1)c1cc(C)c(C(=O)N2CCOCC2)cc1OCF [Compound 89, {4-[Ethyl-(4-methylamino-5-trifluoromethyl-pyrimidin-2-yl)-amino]-5-fluoromethoxy-2-methyl-phenyl}-morpholin-4-yl-methanone]
51.6 | CCNc1nc(Nc2cc(OC)c(C(=O)N3CC[C@H](F)C3)cc2F)ncc1C#N [Compound 81, 4-Ethylamino-2-[2-fluoro-4-((S)-3-fluoro-pyrrolidine-1-carbonyl)-5-methoxy-phenylamino]-pyrimidine-5-carbonitrile]
27.1 | CNc1nc(Nc2cc(OC(F)F)c(C(=O)N3CCOCC3)cc2Cl)ncc1C(F)(F)F [Compound 79, [5-Chloro-2-difluoromethoxy-4-(4-methylamino-5-trifluoromethyl-pyrimidin-2-ylamino)-phenyl]-morpholin-4-yl-methanone]
9.12 | CCNc1nc(Nc2cc(C)c(C(=O)N3CC[C@H](F)C3)cc2Cl)ncc1C#N [Compound 107, 2-[2-Chloro-4-((S)-3-fluoro-pyrrolidine-1-carbonyl)-5-methyl-phenylamino]-4-ethylamino-pyrimidine-5-carbonitrile]
6.93 | CNc1nc(Nc2cc(F)c(C(=O)N3CCCC3)cc2OCF)ncc1C(F)(F)F [Compound 95, [2-Fluoro-5-fluoromethoxy-4-(4-methylamino-5-trifluoromethyl-pyrimidin-2-ylamino)-phenyl]-pyrrolidin-1-yl-methanone]
6.87 | CCNc1nc(Nc2cc(OC(F)F)c(C(=O)N3CCOCC3)cc2Cl)ncc1C(F)(F)F [Compound 78, [5-Chloro-2-difluoromethoxy-4-(4-ethylamino-5-trifluoromethyl-pyrimidin-2-ylamino)-phenyl]-morpholin-4-yl-methanone]
6.86 | CNc1nc(Nc2cc(F)c(C(=O)N3CCOC(C)(C)C3)cc2OC)ncc1C(F)(F)F [Compound 76, (2,2-Dimethyl-morpholin-4-yl)-[2-fluoro-5-methoxy-4-(4-methylamino-5-trifluoromethyl-pyrimidin-2-ylamino)-phenyl]-methanone]
5.55 | COc1cc(C(=O)N2CCOCC2)c(C)cc1Nc1ncc(Cl)c(OC)n1 [Compound 93, [4-(5-Chloro-4-methoxy-pyrimidin-2-ylamino)-5-methoxy-2-methyl-phenyl]-morpholin-4-yl-methanone]
5.5 | COc1cc(C(=O)N2CCOCC2)c(OC)cc1Nc1ncc(Cl)c(OC)n1 [Compound 87, [4-(5-Chloro-4-methoxy-pyrimidin-2-ylamino)-2,5-dimethoxy-phenyl]-morpholin-4-yl-methanone]
4.72 | CNc1nc(Nc2cc(OC)c(C(=O)N3CCCC3)cc2OCCF)ncc1C(F)(F)F [Compound 85, [5-(2-Fluoro-ethoxy)-2-methoxy-4-(4-methylamino-5-trifluoromethyl-pyrimidin-2-ylamino)-phenyl]-pyrrolidin-1-yl-methanone]
4.09 | [2H]C1([2H])OC([2H])([2H])C([2H])([2H])N(C(=O)c2cc(Cl)c(Nc3ncc(C(F)(F)F)c(NCC)n3)cc2OC)C1([2H])[2H] [Compound 86, (5-chloro-4-(4-(ethylamino)-5-(trifluoromethyl)pyrimidin-2-ylamino)-2-methoxyphenyl)(perdeuteromorpholino)methanone]
3.66 | CNc1nc(Nc2cc(C)c(C(=O)N3CCOCC3)cc2OC(C)C)ncc1C(F)(F)F [Compound 99, [5-Isopropoxy-2-methyl-4-(4-methylamino-5-trifluoromethyl-pyrimidin-2-ylamino)-phenyl]-morpholin-4-yl-methanone]
3.64 | CNc1nc(Nc2cc(F)c(C(=O)N3CCOCC3)cc2C)ncc1C(F)(F)F [Compound 92, [2-Fluoro-5-methyl-4-(4-methylamino-5-trifluoromethyl-pyrimidin-2-ylamino)-phenyl]-morpholin-4-yl-methanone]
3.2 | CNc1nc(Nc2cc(OC)c(C(=O)N3CCCC3)cc2OCF)ncc1C(F)(F)F [Compound 90, [5-Fluoromethoxy-2-methoxy-4-(4-methylamino-5-trifluoromethyl-pyrimidin-2-ylamino)-phenyl]-pyrrolidin-1-yl-methanone]
3.13 | COc1cc(C(=O)N2CC[C@H](F)C2)ccc1Nc1ncc(C#N)c(NC2CC2)n1 [Compound 96, 4-Cyclopropylamino-2-[4-((S)-3-fluoro-pyrrolidine-1-carbonyl)-2-methoxy-phenylamino]-pyrimidine-5-carbonitrile]
2.97 | CCOc1nc(Nc2cc(C)c(C(=O)N3CCOCC3)cc2OC)ncc1Cl [Compound 94, [4-(5-Chloro-4-ethoxy-pyrimidin-2-ylamino)-5-methoxy-2-methyl-phenyl]-morpholin-4-yl-methanone]
1.23 | CCNc1nc(Nc2cc(C)c(C(=O)N3CCOCC3)cc2F)ncc1C(F)(F)F [Compound 103, [4-(4-Ethylamino-5-trifluoromethyl-pyrimidin-2-ylamino)-5-fluoro-2-methyl-phenyl]-morpholin-4-yl-methanone]
0.685 | CNc1nc(Nc2cc(C)c(C(=O)N3CCCC3)cc2OCF)ncc1C(F)(F)F [Compound 101, [5-Fluoromethoxy-2-methyl-4-(4-methylamino-5-trifluoromethyl-pyrimidin-2-ylamino)-phenyl]-pyrrolidin-1-yl-methanone]
0.406 | CCNc1nc(Nc2cc(F)c(C(=O)NC(C)(C)CO)cc2OC)ncc1C(F)(F)F [Compound 106, 4-(4-Ethylamino-5-trifluoromethyl-pyrimidin-2-ylamino)-2-fluoro-N-(2-hydroxy-1,1-dimethyl-ethyl)-5-methoxy-benzamide]
